Measured values as given in patent publication US20060069132A1, “Azolecarboxamide herbicides” (priority 2004, published 2006).

Tests used:
rice [1] = test: Test B flooded paddy test; type: in vivo, Oryza sativa; settings: 1000 g ai/ha, visual rating, scale 0 to 100 (0 no effect, 100 complete control), 13 to 15 days
How it was run: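 Each value is a visual 0–100 response rating taken against controls 13 to 15 days after treatment in the greenhouse. Plants received formulated chemical postemergence at the 1- to 4-leaf stage or, in flooded paddy, at the 2-leaf stage.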

rice [2] = test: Test C flooded paddy test; type: in vivo, Oryza sativa
How it was run: (§1)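 Postemergence sprays applied to plants 2 to 18 cm tall (1- to 4-leaf stage); paddy species grown to 2-leaf stage under flooding. After 12 to 14 days in greenhouse, visual rating versus untreated controls on 0–100 scale (0 no effect, 100 complete control).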

large crabgrass = test: Test B pre-/postemergence herbicide test; type: in vivo, Digitaria sanguinalis; settings: for Crabgrass, Large plant response rating: postemergence, visual rating, scale 0 (no effect) to 100 (complete control)
How it was run: (§2)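 Evaluation is visual, comparing treated with control plants on a scale where 0 means no effect and 100 means full control. Treatments were preemergence, or postemergence on seedlings 2–18 cm tall, and held 13–15 days in the greenhouse.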

corn = test: Test B pre-/postemergence herbicide test; type: in vivo, Zea mays; settings: for Corn plant response rating: postemergence, visual rating, scale 0 (no effect) to 100 (complete control)
How it was run: as §2

pigweed = test: Test B pre-/postemergence herbicide test; type: in vivo, Amaranthus retroflexus; settings: for Pigweed plant response rating: postemergence, visual rating, scale 0 (no effect) to 100 (complete control)
How it was run: as §2

cocklebur = test: Test B pre-/postemergence herbicide test; type: in vivo, Xanthium strumarium; settings: for Cocklebur plant response rating: postemergence, visual rating, scale 0 (no effect) to 100 (complete control)
How it was run: (§3)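 Test chemicals in a non-phytotoxic solvent mixture with surfactant were applied preemergence to seeded species and postemergence to plants 2-18 cm tall (1- to 4-leaf stage); rice and barnyardgrass were also tested in a flooded paddy at the 2-leaf stage. Visual rating versus controls after 13-15 days in greenhouse, scale 0 (no effect) to 100 (complete control).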

[3] = system: smallflower umbrella sedge; test: Test C flooded paddy test; type: in vivo, Cyperus difformis
blackgrass = test: Test B postemergence herbicide test; type: in vivo, Alopecurus myosuroides; settings: postemergence, visual rating, scale 0 (no effect) to 100 (complete control)
How it was run: (§4)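 Paddy species grown to the 2-leaf stage under flooding; blackgrass sprayed postemergence at 2–18 cm (1- to 4-leaf stage). Plants kept in a greenhouse for 13 to 15 days, then visually rated against controls on 0 (no effect) to 100 (complete control).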

Surinam grass = test: Test B pre-/postemergence herbicide test; type: in vivo, Urochloa decumbens; settings: for Surinam Grass plant response rating: postemergence, visual rating, scale 0 (no effect) to 100 (complete control)
How it was run: as §2

lambsquarters = test: Test B pre-/postemergence herbicide test; type: in vivo, Chenopodium album; settings: for Lambsquarters plant response rating: postemergence, visual rating, scale 0 (no effect) to 100 (complete control)
How it was run: as §2

ducksalad [4] = test: Test B flooded paddy test; type: in vivo, Heteranthera limosa; settings: 1000 g ai/ha, visual rating, scale 0 to 100 (0 no effect, 100 complete control), 13 to 15 days
How it was run: as §4

barnyardgrass [5] = test: Test B flooded paddy test; type: in vivo, Echinochloa crus-galli; settings: 1000 g ai/ha, visual rating, scale 0 to 100 (0 no effect, 100 complete control), 13 to 15 days
How it was run: as §4

barnyardgrass [6] = test: Test C flooded paddy test; type: in vivo, Echinochloa crus-galli
How it was run: as §1

giant foxtail = test: Test B pre-/postemergence herbicide test; type: in vivo, Setaria faberi; settings: for Foxtail, Giant plant response rating: postemergence, visual rating, scale 0 (no effect) to 100 (complete control)
How it was run: as §2

morningglory = test: Test B pre-/postemergence herbicide test; type: in vivo, Ipomoea coccinea; settings: for Morningglory plant response rating: postemergence, visual rating, scale 0 (no effect) to 100 (complete control)
How it was run: as §3

wheat = test: Test B postemergence herbicide test; type: in vivo, Triticum aestivum; parameters: key to Wheat plant response rating: 0 = no effect, 100 = complete control; settings: postemergence, visual rating, scale 0 (no effect) to 100 (complete control)
How it was run: (§5)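 Postemergence plants were sprayed with formulated test chemicals at 2 to 18 cm height (1- to 4-leaf stage); paddy species were grown to the 2-leaf stage. After 13 to 15 days in a greenhouse, injury was rated visually against untreated controls on a 0–100 scale (0 = no effect, 100 = complete control).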

barnyardgrass [7] = test: Test B pre-/postemergence herbicide test; type: in vivo, Echinochloa crus-galli; settings: for Barnyardgrass plant response rating: postemergence, visual rating, scale 0 (no effect) to 100 (complete control)
How it was run: as §3

[8] = system: small flower umbrella sedge; test: Test B flooded paddy test; type: in vivo, Cyperus difformis; settings: 1000 g ai/ha, visual rating, scale 0 to 100 (0 no effect, 100 complete control), 13 to 15 days
How it was run: as §4

rice [9] = test: Test B pre-/postemergence herbicide test; type: in vivo, Oryza sativa; settings: preemergence
How it was run: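 Plants compared with untreated controls 13–15 days post-treatment and given a visual 0–100 injury score. Applications: preemergence to seeds; postemergence at 1- to 4-leaf (2–18 cm); paddy species flooded, 2-leaf stage. Vehicle non-phytotoxic, surfactant included.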

wild oat = test: Test B postemergence herbicide test; type: in vivo, Avena fatua; settings: postemergence, visual rating, scale 0 (no effect) to 100 (complete control)
How it was run: as §5

velvetleaf = test: Test B pre-/postemergence herbicide test; type: in vivo, Abutilon theophrasti; settings: for Velvetleaf plant response rating: postemergence, visual rating, scale 0 (no effect) to 100 (complete control)
How it was run: as §2

ducksalad [10] = test: Test C flooded paddy test; type: in vivo, Heteranthera limosa
[11] = 62 g ai/ha, scale 0 to 100 (0 no effect, 100 complete control)
[12] = 125 g ai/ha, scale 0 to 100 (0 no effect, 100 complete control)
[13] = 250 g ai/ha, scale of 0 to 100, 0 is no effect, 100 is complete control
[14] = 500 g ai/ha, visual rating after 12 to 14 days, scale 0 to 100 (0 no effect, 100 complete control)
[15] = 125 g ai/ha, 0 = no effect, 100 = complete control, preemergence
[16] = 500 g ai/ha, visual rating 0-100, 0 no effect, 100 complete control, preemergence

CCNC(=O)c1cccc(NC(=O)c2cn(C(C)(C)C)nc2C)c1 [Compound 183]
100: Pigweed plant response rating (0 to 100 scale) (pigweed; [15]) | Plant response rating, Pigweed (pigweed; [16]) | Plant response rating, Lambsquarters (lambsquarters; [16])
40: Velvetleaf plant response rating (velvetleaf; 125 g ai/ha)
20: Crabgrass, Large plant response rating (large crabgrass; 125 g ai/ha) | Corn plant response rating (corn; 125 g ai/ha) | Corn plant response rating (corn; 500 g ai/ha) | Surinam Grass plant response rating (0 to 100 scale) (Surinam grass; [15]) | Surinam Grass plant response rating (Surinam grass; 500 g ai/ha) | Foxtail, Giant plant response rating (giant foxtail; 125 g ai/ha) | Barnyardgrass plant response rating (0 to 100 scale) (barnyardgrass [7]; [15]) | Oat, Wild plant response rating (wild oat; 500 g ai/ha) | Plant response rating, Ducksalad (ducksalad [10]; [14])
90: Plant response rating, Crabgrass, Large (large crabgrass; [16]) | Cocklebur plant response rating (cocklebur; 500 g ai/ha)
60: Barnyardgrass plant response rating (barnyardgrass [5]) | Morningglory plant response rating (morningglory; 125 g ai/ha) | Velvetleaf plant response rating (velvetleaf; 500 g ai/ha)
50: Cocklebur plant response rating (cocklebur; 125 g ai/ha) | Plant response rating, Sedge, Umbrella [3, 14] | Plant response rating, Surinam Grass (Surinam grass; [16]) | Lambsquarters plant response rating (0 to 100 scale) (lambsquarters; [15]) | Plant response rating, Velvetleaf (velvetleaf; [16])
10: Crabgrass, Large plant response rating (0 to 100 scale) (large crabgrass; [15]) | Sedge, Umbrella plant response rating [3, 13] | Blackgrass plant response rating (blackgrass; 500 g ai/ha) | Morningglory plant response rating (0 to 100 scale) (morningglory; [15]) | Plant response rating, Morningglory (morningglory; [16]) | Oat, Wild plant response rating (wild oat; 125 g ai/ha) | Velvetleaf plant response rating (0 to 100 scale) (velvetleaf; [15]) | Ducksalad plant response rating (ducksalad [10]; [13])
80: Pigweed plant response rating (pigweed; 500 g ai/ha) | Lambsquarters plant response rating (lambsquarters; 500 g ai/ha) | Plant response rating, Foxtail, Giant (giant foxtail; [16]) | Sedge, Umbrella plant response rating [8] | Plant response rating, Rice (rice [9]; 500 g ai/ha, visual rating 0-100, 0 no effect, 100 complete control)
0: Rice plant response rating (rice [1]) | Rice plant response rating (rice [2]; [11]) | Rice plant response rating (rice [2]; [12]) | Rice plant response rating (rice [2]; [13]) | Plant response rating, Rice (rice [2]; [14]) | Corn plant response rating (0 to 100 scale) (corn; [15]) | Plant response rating, Corn (corn; [16]) | Cocklebur plant response rating (0 to 100 scale) (cocklebur; [15]) | Plant response rating, Cocklebur (cocklebur; [16]) | Sedge, Umbrella plant response rating [3, 11] | Sedge, Umbrella plant response rating [3, 12] | Blackgrass plant response rating (blackgrass; 125 g ai/ha) | Surinam Grass plant response rating (Surinam grass; 125 g ai/ha) | Barnyardgrass plant response rating (barnyardgrass [6]; [11]) | Barnyardgrass plant response rating (barnyardgrass [6]; 125 g ai/ha, scale of 0 to 100, 0 is no effect, 100 is complete control) | Barnyardgrass plant response rating (barnyardgrass [6]; [13]) | Plant response rating, Barnyardgrass (barnyardgrass [6]; [14]) | Foxtail, Giant plant response rating (0 to 100 scale) (giant foxtail; [15]) | Wheat plant response rating (wheat; 125 g ai/ha) | Wheat plant response rating (wheat; 500 g ai/ha) | Barnyardgrass plant response rating (barnyardgrass [7]; 125 g ai/ha) | Barnyardgrass plant response rating (barnyardgrass [7]; 500 g ai/ha) | Rice plant response rating (0 to 100 scale) (rice [9]; 125 g ai/ha, 0 = no effect, 100 = complete control) | Ducksalad plant response rating (ducksalad [10]; [11]) | Ducksalad plant response rating (ducksalad [10]; [12])
30: Crabgrass, Large plant response rating (large crabgrass; 500 g ai/ha) | Foxtail, Giant plant response rating (giant foxtail; 500 g ai/ha)
70: Pigweed plant response rating (pigweed; 125 g ai/ha) | Lambsquarters plant response rating (lambsquarters; 125 g ai/ha) | Ducksalad plant response rating (ducksalad [4]) | Morningglory plant response rating (morningglory; 500 g ai/ha) | Plant response rating, Barnyardgrass (barnyardgrass [7]; [16])
